Data on 2 compounds can be found in ChEMBL document CHEMBL1681705, “Optimisation of ITK inhibitors through successive iterative design cycles” (Bioorg Med Chem Lett, 2011).

The target of assay [1] is T1, Serine/threonine-protein kinase Nek2 (Homo sapiens) (UniProt P51955).
T1 sequence (whole entry): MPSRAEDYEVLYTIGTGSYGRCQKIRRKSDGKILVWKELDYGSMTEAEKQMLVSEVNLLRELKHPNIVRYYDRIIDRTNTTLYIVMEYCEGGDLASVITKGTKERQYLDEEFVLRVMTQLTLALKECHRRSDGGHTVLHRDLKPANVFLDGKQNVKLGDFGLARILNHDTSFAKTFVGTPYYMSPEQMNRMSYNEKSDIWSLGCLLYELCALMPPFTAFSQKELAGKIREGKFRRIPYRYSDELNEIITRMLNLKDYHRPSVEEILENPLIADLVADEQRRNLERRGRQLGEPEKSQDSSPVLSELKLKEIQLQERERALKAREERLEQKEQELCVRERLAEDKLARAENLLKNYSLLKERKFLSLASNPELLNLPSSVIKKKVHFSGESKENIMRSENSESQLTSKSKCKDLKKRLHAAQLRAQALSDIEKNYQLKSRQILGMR
The experiment in a line: Inhibition of NEK2 at 1 uM; values are per cent of control.

In assay [2] the target is T2, Mitogen-activated protein kinase kinase kinase 7 (Homo sapiens) (UniProt O43318).
T2 sequence (whole entry): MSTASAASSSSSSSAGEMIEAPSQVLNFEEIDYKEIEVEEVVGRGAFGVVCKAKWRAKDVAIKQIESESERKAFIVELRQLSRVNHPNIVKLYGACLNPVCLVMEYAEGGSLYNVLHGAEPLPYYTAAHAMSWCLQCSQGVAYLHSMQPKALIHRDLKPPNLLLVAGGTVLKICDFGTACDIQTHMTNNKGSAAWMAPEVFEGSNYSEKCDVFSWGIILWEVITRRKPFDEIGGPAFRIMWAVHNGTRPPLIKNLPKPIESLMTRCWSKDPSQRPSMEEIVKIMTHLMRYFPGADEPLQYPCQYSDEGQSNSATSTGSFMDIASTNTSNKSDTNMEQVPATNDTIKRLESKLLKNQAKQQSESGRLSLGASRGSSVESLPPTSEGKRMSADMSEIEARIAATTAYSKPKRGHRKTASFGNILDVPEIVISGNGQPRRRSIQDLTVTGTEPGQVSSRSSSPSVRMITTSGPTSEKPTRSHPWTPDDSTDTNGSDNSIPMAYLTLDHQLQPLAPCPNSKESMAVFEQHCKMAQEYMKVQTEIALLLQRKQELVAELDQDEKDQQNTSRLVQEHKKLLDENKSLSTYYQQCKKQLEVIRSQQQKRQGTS
The assay is described as follows: Inhibition of TAK1 at 1 uM; values are per cent of control.

Assay [3] concerns the target T3, Ephrin type-B receptor 4 (Homo sapiens) (UniProt P54760).
T3 sequence (whole entry): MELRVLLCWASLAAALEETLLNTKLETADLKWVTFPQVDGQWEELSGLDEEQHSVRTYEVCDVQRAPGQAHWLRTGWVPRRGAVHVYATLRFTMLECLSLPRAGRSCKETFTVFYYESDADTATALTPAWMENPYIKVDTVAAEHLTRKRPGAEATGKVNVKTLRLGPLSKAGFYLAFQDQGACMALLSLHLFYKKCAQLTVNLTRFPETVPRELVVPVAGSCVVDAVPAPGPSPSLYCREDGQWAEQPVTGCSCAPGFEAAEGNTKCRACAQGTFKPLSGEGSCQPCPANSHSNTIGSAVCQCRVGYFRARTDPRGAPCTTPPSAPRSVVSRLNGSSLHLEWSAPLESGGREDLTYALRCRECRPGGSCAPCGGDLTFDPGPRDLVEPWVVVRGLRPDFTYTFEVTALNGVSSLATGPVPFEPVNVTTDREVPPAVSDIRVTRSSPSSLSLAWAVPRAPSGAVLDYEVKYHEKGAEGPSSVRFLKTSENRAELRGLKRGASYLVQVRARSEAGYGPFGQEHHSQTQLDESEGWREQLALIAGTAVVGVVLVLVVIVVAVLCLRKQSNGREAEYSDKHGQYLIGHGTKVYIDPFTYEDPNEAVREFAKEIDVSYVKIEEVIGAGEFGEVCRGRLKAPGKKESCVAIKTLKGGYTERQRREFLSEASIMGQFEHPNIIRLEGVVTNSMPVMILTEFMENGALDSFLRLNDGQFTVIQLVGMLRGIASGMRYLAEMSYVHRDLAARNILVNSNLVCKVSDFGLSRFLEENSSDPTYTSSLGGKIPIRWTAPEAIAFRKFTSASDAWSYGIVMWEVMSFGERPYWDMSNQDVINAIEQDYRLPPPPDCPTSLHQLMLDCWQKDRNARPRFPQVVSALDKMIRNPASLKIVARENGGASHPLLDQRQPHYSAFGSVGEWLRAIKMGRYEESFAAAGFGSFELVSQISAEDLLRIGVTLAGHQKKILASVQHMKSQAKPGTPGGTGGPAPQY
The assay is described as follows: Inhibition of EphB4 at 1 uM; values are per cent of control.

Assay [4] concerns the target T4, Dual specificity mitogen-activated protein kinase kinase 6 (Homo sapiens) (UniProt P52564).
T4 sequence (whole entry): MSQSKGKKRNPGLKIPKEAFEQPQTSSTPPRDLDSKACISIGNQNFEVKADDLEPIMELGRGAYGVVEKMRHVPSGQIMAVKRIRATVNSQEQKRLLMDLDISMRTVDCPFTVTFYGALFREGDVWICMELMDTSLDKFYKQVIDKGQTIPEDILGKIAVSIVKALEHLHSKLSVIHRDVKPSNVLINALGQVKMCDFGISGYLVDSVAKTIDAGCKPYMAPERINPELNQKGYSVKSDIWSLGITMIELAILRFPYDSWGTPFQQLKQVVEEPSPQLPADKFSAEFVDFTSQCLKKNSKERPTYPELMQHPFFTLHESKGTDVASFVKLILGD
The experiment in a line: Inhibition of MKK6 at 0.1 uM; values are per cent of control.

The target in assay [5] is Serine/threonine-protein kinase N2 (Homo sapiens) (UniProt Q16513). The assay is described as follows: Inhibition of PRK2 at 0.1 uM; values are per cent of control.
Sequence of Serine/threonine-protein kinase N2 (Homo sapiens) (Q16513 whole entry, looked up): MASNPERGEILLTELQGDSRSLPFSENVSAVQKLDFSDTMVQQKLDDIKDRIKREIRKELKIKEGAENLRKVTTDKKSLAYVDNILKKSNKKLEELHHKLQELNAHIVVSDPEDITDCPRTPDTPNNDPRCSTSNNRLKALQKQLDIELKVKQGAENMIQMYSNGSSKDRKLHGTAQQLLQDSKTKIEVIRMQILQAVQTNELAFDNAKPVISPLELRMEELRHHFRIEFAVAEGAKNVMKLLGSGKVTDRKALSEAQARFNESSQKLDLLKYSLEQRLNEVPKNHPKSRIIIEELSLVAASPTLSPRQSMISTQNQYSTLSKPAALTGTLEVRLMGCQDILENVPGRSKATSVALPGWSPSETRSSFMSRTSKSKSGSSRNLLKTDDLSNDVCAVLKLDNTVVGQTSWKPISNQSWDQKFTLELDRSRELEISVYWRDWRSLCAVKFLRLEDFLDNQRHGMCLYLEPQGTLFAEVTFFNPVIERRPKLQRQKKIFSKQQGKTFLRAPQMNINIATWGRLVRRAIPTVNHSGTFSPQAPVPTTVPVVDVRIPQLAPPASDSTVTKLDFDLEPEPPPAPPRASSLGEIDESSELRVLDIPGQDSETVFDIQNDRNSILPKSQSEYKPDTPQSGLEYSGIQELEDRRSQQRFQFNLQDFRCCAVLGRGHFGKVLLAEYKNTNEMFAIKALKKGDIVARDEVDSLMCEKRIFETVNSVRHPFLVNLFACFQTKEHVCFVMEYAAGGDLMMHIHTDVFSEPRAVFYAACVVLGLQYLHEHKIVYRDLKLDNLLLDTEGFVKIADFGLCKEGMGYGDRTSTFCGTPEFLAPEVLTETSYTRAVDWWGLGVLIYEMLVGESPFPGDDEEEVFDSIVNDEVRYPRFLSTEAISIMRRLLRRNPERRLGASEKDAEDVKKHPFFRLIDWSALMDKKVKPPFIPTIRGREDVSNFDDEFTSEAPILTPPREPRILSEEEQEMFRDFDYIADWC
The target in assay [6] is Death-associated protein kinase 2 (Homo sapiens) (UniProt Q9UIK4). The assay is described as follows: Inhibition of DAPK2 at 0.1 uM; values are per cent of control.
Sequence of Death-associated protein kinase 2 (Homo sapiens) (Q9UIK4 whole entry, looked up): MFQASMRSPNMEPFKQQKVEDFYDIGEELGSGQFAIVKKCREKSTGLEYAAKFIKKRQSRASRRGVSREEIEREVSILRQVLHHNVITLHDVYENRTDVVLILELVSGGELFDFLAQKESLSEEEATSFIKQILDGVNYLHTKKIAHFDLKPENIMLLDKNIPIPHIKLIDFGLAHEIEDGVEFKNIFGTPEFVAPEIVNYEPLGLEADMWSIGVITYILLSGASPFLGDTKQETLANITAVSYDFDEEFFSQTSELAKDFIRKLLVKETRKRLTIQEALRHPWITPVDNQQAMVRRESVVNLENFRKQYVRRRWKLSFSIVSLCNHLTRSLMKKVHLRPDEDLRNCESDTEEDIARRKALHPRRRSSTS
In assay [7] the target is Fibroblast growth factor receptor 2 (Homo sapiens) (UniProt P21802). The assay is described as follows: Inhibition of FGFR2 at 0.1 uM; values are per cent of control.
Sequence of Fibroblast growth factor receptor 2 (Homo sapiens) (P21802 22-821 limits assumed): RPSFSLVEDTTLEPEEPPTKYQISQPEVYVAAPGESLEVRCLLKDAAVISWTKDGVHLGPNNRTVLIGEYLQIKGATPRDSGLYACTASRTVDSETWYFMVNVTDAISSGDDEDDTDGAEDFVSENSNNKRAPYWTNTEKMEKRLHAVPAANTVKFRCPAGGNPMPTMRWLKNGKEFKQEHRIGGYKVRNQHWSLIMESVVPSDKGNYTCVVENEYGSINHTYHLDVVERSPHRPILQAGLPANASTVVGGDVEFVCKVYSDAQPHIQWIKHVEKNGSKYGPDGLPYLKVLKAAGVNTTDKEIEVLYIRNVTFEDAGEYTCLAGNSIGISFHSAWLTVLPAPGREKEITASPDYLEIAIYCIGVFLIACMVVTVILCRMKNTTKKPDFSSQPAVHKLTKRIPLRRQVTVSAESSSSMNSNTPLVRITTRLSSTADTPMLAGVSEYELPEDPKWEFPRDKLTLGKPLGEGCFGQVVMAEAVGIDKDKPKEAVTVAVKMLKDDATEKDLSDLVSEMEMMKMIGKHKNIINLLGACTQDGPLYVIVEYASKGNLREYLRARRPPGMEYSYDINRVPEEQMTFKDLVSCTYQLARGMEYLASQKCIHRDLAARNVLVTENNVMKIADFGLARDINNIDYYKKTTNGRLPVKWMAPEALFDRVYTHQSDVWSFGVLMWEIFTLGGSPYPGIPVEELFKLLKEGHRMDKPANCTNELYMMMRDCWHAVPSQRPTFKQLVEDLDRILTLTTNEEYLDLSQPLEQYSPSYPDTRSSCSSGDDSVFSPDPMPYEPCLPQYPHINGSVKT
The target of assay [8] is Serine/threonine-protein kinase MARK1 (Homo sapiens) (UniProt Q9P0L2). The experiment in a line: Inhibition of MARK1 at 0.1 uM; values are per cent of control.
Sequence of Serine/threonine-protein kinase MARK1 (Homo sapiens) (Q9P0L2 whole entry, looked up): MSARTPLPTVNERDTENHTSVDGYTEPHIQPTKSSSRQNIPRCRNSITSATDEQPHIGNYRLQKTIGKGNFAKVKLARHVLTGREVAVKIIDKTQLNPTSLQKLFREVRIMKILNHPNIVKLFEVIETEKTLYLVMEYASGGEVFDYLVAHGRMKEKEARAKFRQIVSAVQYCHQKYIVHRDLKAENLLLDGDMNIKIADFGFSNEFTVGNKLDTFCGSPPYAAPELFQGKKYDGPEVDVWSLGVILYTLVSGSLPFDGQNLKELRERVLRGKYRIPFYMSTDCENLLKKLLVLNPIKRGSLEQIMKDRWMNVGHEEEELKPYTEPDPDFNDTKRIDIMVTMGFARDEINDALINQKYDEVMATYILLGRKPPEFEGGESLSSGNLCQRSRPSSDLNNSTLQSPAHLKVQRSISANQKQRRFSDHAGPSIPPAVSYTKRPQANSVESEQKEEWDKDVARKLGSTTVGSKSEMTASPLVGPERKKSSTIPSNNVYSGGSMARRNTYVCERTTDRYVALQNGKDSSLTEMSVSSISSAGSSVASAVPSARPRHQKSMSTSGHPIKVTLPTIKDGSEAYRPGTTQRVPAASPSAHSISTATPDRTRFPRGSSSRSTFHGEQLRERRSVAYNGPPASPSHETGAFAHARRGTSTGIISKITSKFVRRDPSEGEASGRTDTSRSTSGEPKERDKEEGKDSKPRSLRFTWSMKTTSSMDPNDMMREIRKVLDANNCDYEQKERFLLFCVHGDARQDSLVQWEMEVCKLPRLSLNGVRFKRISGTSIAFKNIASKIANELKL

`Cc1ccc2cc(-c3n[nH]c4ccc(NC5CCNC5)cc34)[nH]c2c1` (stereo unspecified): the residual activity in assay [1] was 36%; in assay [2], 9%; in assay [3], 62%; in assay [4], 57%; in assay [5], 93%; in assay [6], 91%. Besides, the residual activity in assay [7] stood at 8%; in assay [8], 5%.
Turning to `Cc1ccc2cc(-c3n[nH]c4ccc(NC5CCN(Cc6ccccc6)CC5)cc34)[nH]c2c1`, the residual activity in assay [1] is 68%; in assay [2] it was 35%; in assay [3], 92%; in assay [4], 90%; in assay [5], 25%; in assay [6], 106%. In addition, the residual activity in assay [7] was 51%; in assay [8] it was 53%.
